The source made the active and inactive calls. The calls are words filed in the database; no cut-off is given here.
Assays:
LX-2 [1] = assay: Inhibition of TGF-beta1-induced human LX2 activation at 20 uM pretreated with TGF-beta1 for 1 hr followed by compound addition and measured after 72 hrs by CCK-8 assay relative to control; assay type: functional
[2] = Antiproliferative activity against human LX2 cells assessed as cell survival rate at 20 uM incubated for 72 hrs by CCK-8 assay; assay type: toxicity, cell-based; settings: LX-2 cells, read-out: Activity
LX-2 [3] = assay: Downregulation of fibronectin mRNA expression in TGF-beta1-induced human LX2 cells at 20 uM pretreated with TGF-beta1 for 1 hr followed by compound addition and measured after 24 hrs by qRT-PCR analysis; assay type: functional, cell-based
LX-2 [4] = assay: Downregulation of alpha-SMA mRNA expression in TGF-beta1-induced human LX2 cells at 20 uM pretreated with TGF-beta1 for 1 hr followed by compound addition and measured after 24 hrs by qRT-PCR analysis; assay type: functional, cell-based
LX-2 [5] = assay: Effect on alpha-SMA protein level in TGF-beta1-induced human LX2 cells at 20 uM pretreated with TGF-beta1 for 1 hr followed by compound addition and measured after 24 hrs by Western blot analysis; assay type: functional, cell-based
LX-2 [6] = assay: Effect on fibronectin protein level in TGF-beta1-induced human LX2 cells at 20 uM pretreated with TGF-beta1 for 1 hr followed by compound addition and measured after 24 hrs by Western blot analysis; assay type: functional, cell-based
LX-2 [7] = assay: Antifibrotic activity against TGF-beta1 induced human LX2 cells assessed as reduction of alpha-SMA expression at 20 uM pretreated with TGF-beta1 for 1 hr followed by compound addition and measured after 24 hrs by Western blot analysis; assay type: functional, cell-based
LX-2 [8] = assay: Antifibrotic activity against TGF-beta1 induced human LX2 cells assessed as reduction of fibronectin expression at 20 uM pretreated with TGF-beta1 for 1 hr followed by compound addition and measured after 24 hrs by Western blot analysis; assay type: functional, cell-based
[9] = Antiproliferative activity against human LO2 cells assessed as inhibition of cell growth incubated for 72 hrs by CCK-8 assay; assay type: toxicity, cell-based; settings: LO2 (L02) cells
Mus musculus [10] = assay: Antifibrotic activity against CCL4-induced C57BL/6J mouse hepatic fibrosis model assessed as reduction in F4/80+CD11b+ in macrophage at 30 mg/kg, po measured for 3 weeks by flow cytometry analysis relative to control; assay type: functional; design: scale not given: the % may be the effect or the level left
Mus musculus [11] = assay: Antifibrotic activity against CCL4-induced C57BL/6J mouse hepatic fibrosis model assessed as reduction in CD69/CD4 in Th1 cell cells at 30 mg/kg, po measured for 3 weeks by flow cytometry analysis relative to control; assay type: functional; design: scale not given: the % may be the effect or the level left
Mus musculus [12] = assay: Antifibrotic activity against CCL4-induced C57BL/6J mouse hepatic fibrosis model assessed as reduction in CD69/CD8 in […] cell cells at 30 mg/kg, po measured for 3 weeks by flow cytometry analysis relative to control; assay type: functional; design: scale not given: the % may be the effect or the level left
Mus musculus [13] = assay: Antifibrotic activity against CCL4-induced C57BL/6J mouse hepatic fibrosis model assessed as reduction in CD11b/Gr-1 in MDSC cells at 30 mg/kg, po measured for 3 weeks by flow cytometry analysis relative to control; assay type: functional; design: scale not given: the % may be the effect or the level left
[14] = Toxicity in CCL4-induced po dosed C57BL/6J mouse assessed as inflammatory cell infiltration in heart at 15 to 30 mg/kg, po by H and E staining based analysis; assay type: organism-based; settings: in vivo, dose 15-30 mg/kg
[15] = Toxicity in CCL4-induced po dosed C57BL/6J mouse assessed as inflammatory cell infiltration in spleen at 15 to 30 mg/kg, po by H and E staining based analysis; assay type: organism-based; settings: in vivo, dose 15-30 mg/kg
[16] = Toxicity in CCL4-induced po dosed C57BL/6J mouse assessed as inflammatory cell infiltration in lung at 15 to 30 mg/kg, po by H and E staining based analysis; assay type: organism-based; settings: in vivo, dose 15-30 mg/kg
LX-2 [17] = assay: […] of alpha-SMA mRNA expression in TGF-beta1-induced human LX2 cells at 20 uM pretreated with TGF-beta1 for 1 hr followed by compound addition and measured after 24 hrs by qRT-PCR analysis; assay type: functional, cell-based

| SMILES | inhibition at 20 µM (LX-2 [1]) | viability at 72 h, 20 µM [2] | also measured |
| --- | --- | --- | --- |
| COc1ccc(/C=C/C(=O)Nc2ccccc2C(=O)NC2CC2)cc1OC | 1.5% | 71.5% |  |
| COc1ccccc1/C=C/C(=O)Nc1cccc(C(=O)NC2CCCC2)c1 | 17.3% | 66% |  |
| COc1cccc(/C=C/C(=O)Nc2ccc(C(=O)NC3CCCC3)cc2)c1OC | 17.3% | 77% |  |
| COc1ccc(/C=C/C(=O)Nc2ccccc2C(=O)N2CCCCC2)cc1OC | 13% | 88.7% |  |
| COc1ccccc1/C=C/C(=O)Nc1ccc(C(=O)NC2CCCC2)cc1 | 70.3% | 70.8% | Activity (LX-2 [3]): Active; Activity (LX-2 [4]): Active; Activity (LX-2 [5]): inactive; Activity (LX-2 [6]): inactive |
| COc1ccc(/C=C/C(=O)Nc2cccc(C(=O)NC3CCC3)c2)cc1OC | 31.7% | 60% |  |
| COc1cccc(/C=C/C(=O)Nc2ccc(C(=O)NC3CCCC3)cc2)c1 | 19% | 70.8% |  |
| COc1ccc(/C=C/C(=O)Nc2ccc(C(=O)N3CCCCC3)cc2)cc1OC | 29.5% | 74% |  |
| COc1ccc(/C=C/C(=O)Nc2ccc(C(=O)NC3CCCC3)cc2)cc1OC | 48.3% | 46% | Activity (LX-2 [7]): Active; Activity (LX-2 [8]): Active; IC50 at 72 h [9]: 13.3 µM |
| COc1ccc(/C=C/C(=O)Nc2cccc(C(=O)NC3CCCCC3)c2)cc1OC | 49.6% | 39.8% |  |
| CNC(=O)c1ccccc1NC(=O)/C=C/c1ccc(OC)c(OC)c1 | 13% | 67% |  |
| COc1ccc(/C=C/C(=O)Nc2ccc(C(=O)NC3CCNC3)nc2)cc1OC (stereo not given) | 19.5% | 76.5% |  |
| COc1ccc(/C=C/C(=O)Nc2ccccc2C(=O)NC2CCCC2)cc1OC | 27% | 88% |  |
| COc1ccc(/C=C/C(=O)Nc2ccc(C(=O)NC3CCNC3)cc2)cc1OC (stereo not given) | 17% | 80.3% |  |
| O=C(/C=C/c1ccc2c(c1)OCCO2)Nc1ccc(C(=O)NC2CCCC2)cc1 | 18% | 69.3% |  |
| COc1ccc(/C=C/C(=O)Nc2ccc(C(=O)NC3CCCC3)cc2)cc1 | 32% | 50.3% |  |
| CNC(=O)c1cccc(NC(=O)/C=C/c2ccc(OC)c(OC)c2)c1 | 28.5% | 79.7% |  |
| COc1ccc(/C=C/C(=O)Nc2ccc(C(=O)NC3CC3)cc2)cc1OC | 24.5% | 74.3% |  |
| COc1ccc(CCC(=O)Nc2ccc(C(=O)NC3CCCC3)cc2)cc1OC | 3% | 71.7% |  |
| COc1cc(/C=C/C(=O)Nc2ccc(C(=O)NC3CCCC3)cc2)cc(OC)c1 | 36.7% | 69.7% | Activity (LX-2 [7]): Active; Activity (LX-2 [8]): Active; IC50 at 72 h [9]: 17.3 µM |

| SMILES | inhibition at 20 µM (LX-2 [1]) | viability at 72 h, 20 µM [2] | also measured |
| --- | --- | --- | --- |
| COc1ccc(/C=C/C(=O)Nc2ccccc2C(=O)NC2CCCCC2)cc1OC | 20% | 45.3% |  |
| COc1ccc(/C=C/C(=O)Nc2cccc(C(=O)O)c2)cc1OC | 26% | 79.3% |  |
| COc1ccc(/C=C/C(=O)Nc2ccc(C(=O)O)nc2)cc1OC | 14% | 98% |  |
| COc1ccc(/C=C/C(=O)Nc2ccc(C(=O)NC3CCC3)cc2)cc1OC | 27% | 68.3% |  |
| COc1cccc(/C=C/C(=O)Nc2cccc(C(=O)NC3CCCC3)c2)c1 | 25.3% | 56% |  |
| COc1ccc(/C=C/C(=O)Nc2cccc(C(=O)NC3CC3)c2)cc1OC | 30% | 65.3% |  |
| COc1ccc(/C=C/C(=O)Nc2ccc(C(=O)NC3CCCCC3)cc2)cc1OC | 14% | 81.3% |  |
| COc1ccc(/C=C/C(=O)Nc2ccccc2C(=O)O)cc1OC [TRANILAST] | 17.5% | 80% | IC50 at 72 h [9]: 82.3 µM; Activity (Mus musculus [10]): 5.09%; Activity (Mus musculus [11]): 1.66%; Activity (Mus musculus [12]): 1.92%; Activity (Mus musculus [13]): 2.87%; Activity [14]: Non-Toxic; Activity [15]: Non-Toxic; Activity [16]: Non-Toxic |
| COc1ccc(/C=C/C(=O)Nc2ccc(C(=O)NC3CCCC3)cc2)cc1O | 29.5% | 66.3% |  |
| COc1ccc(/C=C/C(=O)Nc2ccc(C(=O)NC3CCCC3)nc2)cc1OC | 41% | 64.5% | Activity (LX-2 [17]): Active |
| CNC(=O)c1ccc(NC(=O)/C=C/c2ccc(OC)c(OC)c2)cc1 | 24% | 79.5% |  |
| Cc1cc(C)cc(/C=C/C(=O)Nc2ccc(C(=O)NC3CCCC3)cc2)c1 | 3% | 80.5% |  |
| COc1ccc(/C=C/C(=O)Nc2cccc(C(=O)N3CCCCC3)c2)cc1OC | 17.7% | 68.8% |  |
| COc1ccc(CCC(=O)Nc2cccc(C(=O)NC3CCCC3)c2)cc1OC | 13.8% | 71.7% |  |
| COc1ccc(OC)c(/C=C/C(=O)Nc2ccc(C(=O)NC3CCCC3)cc2)c1 | 26.3% | 63% |  |
| COc1ccc(/C=C/C(=O)Nc2ccc(C(=O)O)cc2)cc1OC | 31% | 81.5% |  |
| COc1ccc(/C=C/C(=O)Nc2ccccc2C(=O)NC2CCC2)cc1OC | 19% | 71% |  |
| O=C(/C=C/c1ccc2c(c1)OCO2)Nc1ccc(C(=O)NC2CCCC2)cc1 | 22% | 78% |  |
| COc1ccc(/C=C/C(=O)Nc2cccc(C(=O)NC3CCCC3)c2)cc1OC | 53.8% | 44.3% | Activity (LX-2 [7]): Active; Activity (LX-2 [8]): Active; IC50 at 72 h [9]: 8.4 µM |
